Measurements as given in the supplement of paper PMC5908809.

What was measured:
[1] = tested on: normal NK cells expanded with K562-aAPC; test: drug sensitivity score (DSS) (DSS units); higher = more sensitive; extreme values may be limits of the assay; settings: 72 h; IL-2 2.5 ng/mL
Method: (§1)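 Drug sensitivity and resistance testing on K562-aAPC-expanded normal NK cells: 5 concentrations (10-fold steps over a 10,000-fold range), 72 h at 37 °C, viability by CellTiter-Glo normalised to DMSO and benzethonium chloride controls; DSS from the fitted curve.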

[2] = tested on: NK-92 (IL-2 2.5 ng/mL); test: as above; settings: 72 h
[3] = tested on: normal primary NK cells, pool 1 (3 donors), resting (IL-2 0 ng/mL); test: as above; settings: 72 h
[4] = tested on: normal primary NK cells, pool 2 (3 donors) (IL-2 2.5 ng/mL); test: as above; settings: 72 h
[5] = tested on: normal primary NK cells, pool 3 (3 donors) (IL-2 2.5 ng/mL); test: as above; settings: 72 h
[6] = tested on: NK-YS (IL-2 2.5 ng/mL); test: as above; settings: 72 h
[7] = tested on: SNK-6 (IL-2 2.5 ng/mL); test: as above; settings: 72 h
[8] = tested on: IMC-1 (IL-2 20 ng/mL); test: as above; settings: 72 h
[9] = tested on: KHYG-1 (IL-2 2.5 ng/mL); test: as above; settings: 72 h
[10] = tested on: normal primary NK cells, pool 1 (3 donors) (IL-2 2.5 ng/mL); test: as above; settings: 72 h
[11] = tested on: NKL (IL-2 2.5 ng/mL); test: as above; settings: 72 h
[12] = tested on: DERL-7 (IL-2 2.5 ng/mL); test: as above; settings: 72 h
[13] = tested on: YT (IL-2 2.5 ng/mL); test: as above; settings: 72 h
[14] = tested on: KAI3 (IL-2 2.5 ng/mL); test: as above; settings: 72 h
[15] = tested on: NK-92 (IL-2 2.5 ng/mL); test: percent inhibition of viability; higher = more inhibition; settings: 72 h
[16] = tested on: normal primary NK cells, pool 1 (3 donors), resting (IL-2 0 ng/mL); test: as above; settings: 72 h
[17] = tested on: normal primary NK cells, pool 2 (3 donors) (IL-2 2.5 ng/mL); test: as above; settings: 72 h
[18] = tested on: normal primary NK cells, pool 3 (3 donors) (IL-2 2.5 ng/mL); test: as above; settings: 72 h
[19] = tested on: NK-YS (IL-2 2.5 ng/mL); test: as above; settings: 72 h
[20] = tested on: SNK-6 (IL-2 2.5 ng/mL); test: as above; settings: 72 h
[21] = tested on: IMC-1 (IL-2 20 ng/mL); test: as above; settings: 72 h
[22] = tested on: KHYG-1 (IL-2 2.5 ng/mL); test: as above; settings: 72 h
[23] = tested on: normal primary NK cells, pool 1 (3 donors) (IL-2 2.5 ng/mL); test: as above; settings: 72 h
[24] = tested on: NKL (IL-2 2.5 ng/mL); test: as above; settings: 72 h
[25] = tested on: DERL-7 (IL-2 2.5 ng/mL); test: as above; settings: 72 h
[26] = tested on: YT (IL-2 2.5 ng/mL); test: as above; settings: 72 h
[27] = tested on: KAI3 (IL-2 2.5 ng/mL); test: as above; settings: 72 h
[28] = tested on: normal NK cells expanded with K562-aAPC; test: as above; settings: 72 h, IL-2 2.5 ng/mL
Method: as §1

S=c1[nH]cnc2nc[nH]c12 [Mercaptopurine] (max concentration tested 10000 nM)
Settings	drug sensitivity score
[1]	0.11
[2]	8.34
[3]	0
[4]	0
[5]	0
[6]	11.6
[7]	19.7
[8]	8.45
[9]	9.71
[10]	0
[11]	0
[12]	4.05
[13]	8.11
[14]	3.99

percent inhibition of viability [%]
Settings	1 nM	10 nM	100 nM	1000 nM	10000 nM
[15]	-10.3	-10.7	12.1	38.5	53.5
[16]	-2.87	-18.3	-8.34	-34.9	-22.3
[17]	-14.1	-7.32	-6.91	-13.4	3.06
[18]	-16.8	-9.02	-3.33	-7.89	8.16
[19]	-2.27	-1.87	9.74	52.6	90.4
[20]	11.4	16.1	38.4	75.4	94.4
[21]	-3.21	-3.47	2.38	21.7	91.4
[22]	-2.69	-0.22	5.34	30	99.3
[23]	-1.1	-6.11	-2.9	-10.7	0.61
[24]	-15.5	0	-11.9	-4.76	6.22
[25]	-4.35	-1.44	0.98	9.85	47
[26]	-0.59	-2.35	3.64	24.6	81.8
[27]	-5.39	-4.2	-7.01	6.69	53.7
[28]	-5.16	4.06	-1.48	3.65	11.2

CNC(=O)c1cccc2cc(Oc3ccnc4cc(OCC5(N)CC5)c(OC)cc34)ccc12 [Lucitanib] (max concentration tested 10000 nM)
Settings	drug sensitivity score
[1]	1.53
[2]	6.93
[3]	0.81
[4]	0
[5]	0
[6]	5.23
[7]	3.25
[8]	0
[9]	5.63
[10]	0
[11]	0
[12]	0.68
[13]	2.92
[14]	4.47

percent inhibition of viability [%]
Settings	1 nM	10 nM	100 nM	1000 nM	10000 nM
[15]	-12.1	-11.8	3.06	13.7	83.8
[16]	-16.7	4.29	3.09	0.61	22.1
[17]	-3.78	2.2	2.46	-3.23	-5
[18]	-7.6	0.39	3.76	-6.23	-5.45
[19]	-6.67	-4.7	-0.96	9.75	65.5
[20]	-7.37	-13.2	-13.8	-8.69	69.6
[21]	-4.99	1.11	1.41	2.72	0.85
[22]	-3.19	-3.91	-0.83	10.4	70.4
[23]	-6.86	10.5	-2.99	8.01	5.53
[24]	1.05	4.31	4.24	-3.6	3.06
[25]	-0.32	-4.66	2.4	-2.57	23.4
[26]	-5.87	-7.33	-6.32	-2.96	58.7
[27]	-0.3	-0.75	-0.45	11.7	49.6
[28]	-5.59	-4.77	-3.52	4.7	23.6

O=C(c1ccc(F)c(F)c1Nc1ccc(I)cc1F)N1CC(O)([C@@H]2CCCCN2)C1 [Cobimetinib] (max concentration tested 1000 nM)
Settings	drug sensitivity score
[1]	0.83
[2]	0
[3]	2.92
[4]	1.58
[5]	0.02
[6]	1.78
[7]	0
[8]	0
[9]	6.6
[10]	5.11
[11]	10.4
[12]	7.96
[13]	0.26
[14]	3.21

percent inhibition of viability [%]
Settings	0.1 nM	1 nM	10 nM	100 nM	1000 nM
[15]	-10.5	-14.3	-27.4	-34.9	9.96
[16]	7.7	3.18	22	14	16.4
[17]	-3.62	-9.92	3.68	12.4	19.9
[18]	-9.25	-10.3	-2.76	-1.62	12.1
[19]	-1.72	-3.33	-3.31	6.41	24.2
[20]	-10.3	-0.09	-17.7	-8.92	-10.9
[21]	-6.91	-4.02	-2.84	-2.89	11.3
[22]	0.28	-3.46	0.44	23.2	61.9
[23]	-3.52	2.49	17.3	18.4	24
[24]	-12.4	-11.4	17.8	45	73.1
[25]	-2.43	3.83	18.1	32.9	46.5
[26]	0.33	-2.92	-2.04	-0.43	15.7
[27]	9.38	9.29	9.13	11.7	32.1
[28]	-7.24	-7.72	-6.49	1.17	21.4
